Reference: patent US11419869B2, “Dosage forms and regimens for amino acid compounds” (Pliant Therapeutics, Inc., priority 2019, dated 2022)

Key:
lung Col1a1 expression = test: Precision cut lung slices, chronic bleomycin, versus pirfenidone and nintedanib (Example B10); type: cell-based, mice; conditions: 7 days culture, vs DMSO vehicle, FIG. 6A
Procedure: Mice (C57BL/6) were administered 3 U/kg of bleomycin (Teva Pharmaceuticals; North Wales, Pa.) on Day 0 and 1 U/kg of bleomycin on days 14, 28, 42 and 56 via oropharyngeal aspiration while under anesthesia. At day 70, 14 days following the final bleomycin insult, precision cut lung slices were obtained. Following euthanization, 2% low gelling temp agarose was injected into the mouse lungs via the trachea. […] The lobes were then subjected to precision slicing to obtain samples for culture using a microtome (Compresstome VF-300-0Z, Precisionary; Greenville, N.C.). Individual slices were distributed in a multiwell culture plate and cultured for 7 days under control (DMSO) and test compound conditions. The viability of the slices over the course of culturing was confirmed by WST-1 assay of mitochondrial activity.
During the culture period, slices in the control group were treated with DMSO and slices in the test group were treated with a DMSO solution of one of compound 5; nintedanib; pirfenidone; a combination of nintedanib and compound 5; a combination of pirfenidone and compound 5; or the small molecule ALK5 inhibitor. Compound 5 was […] effective to equal or exceed its respective IC50 values at αvβ6 and αvβ1. The small molecule ALK5 inhibitor was analyzed at […] its reported IC50 value. Nintendanib and pirfenidone were analyzed at concentrations 10× their reported therapeutic concentrations.

COL1A1 expression [1] = test: Precision cut lung slices from human IPF explants, COL1A1 expression (Example B11); type: cell-based
Text: Explanted lung tissue was obtained from human IPF subjects and inflated with agarose as described in the preceding examples. Biopsy cores were obtained from the agarose-inflated lung tissue. The biopsy cores were subjected to precision slicing to obtain several hundred μm thick. Individual slices were distributed in a multiwell culture plate and cultured for […] under control (DMSO) and test compound conditions. The viability of the slices over the course of culturing was confirmed by WST-1 assay of mitochondrial activity.
PCLS from 5-7 idopathic pulmonary fibrosis (IPF) lung tissue samples were cultured for seven days with one of: DMSO; Compound 5 at 200 nM; nintedanib at 75 nM; pirfenidone at 50 μm; a combination of Compound 5 at 200 nM and nintedanib at 75 nM; a combination of Compound 5 at 200 nM and pirfenidone at […]; or an Alk5 inhibitor at 1 μm. […] FIG. 6D is a bar graph showing relative expression of COL1A1 in precision cut lung slices (PCLS) from idopathic pulmonary fibrosis (IPF) lung tissue upon exposure to Comopund 5, clinical standard of care compounds nintedanib (Nin) and pirfenidone (Pirf), and an ALK5 inhibitor, all versus DMSO control.
PCLS from a single IPF lung tissue sample were cultured for seven days with Compound 5 at concentrations of […], 2 nM, 60 nM, 200 nM, and 1 μM, along with 0.1% DMSO control and an Alk5 inhibitor at 1 μM. […] COL1A1 expression is also graphed for the PCLS in the presence of 0.1% DMSO control, and an Alk5 inhibitor at 1 μM.

COL1A1 expression [2] = test: COL1A1 expression in precision cut lung slices (PCLS) from human IPF lung tissue; conditions: FIG. 6E, 200 pM to 1 μM
[3] = system: IPF-derived human lung fibroblasts; test: LAP adhesion binding assay, IPF-derived human lung fibroblasts; type: cell-based; conditions: adhesion to LAP, cell index (electrical impedance), FIG. 3B
Procedure: Two latency associated peptide (LAP) adhesion binding assays were devised using primary human lung cells, including normal (healthy) human bronchial epithelial cells and human lung fibroblasts (healthy and IPF).
Human lung fibroblasts derived from normal and IPF lung tissue are known to express αvβ1 integrin. The IPF-derived human lung fibroblasts were prepared for the assay by dissociation with trypsin/EDTA, and were seeded at 20,000 cells per well on 96 well plates (ACEA Bioscience E-plate View, Acea Biosciences; San Diego, Calif.) previously coated with 5 μg/ml of recombinant human LAP (R&D Systems; Minneapolis, Minn.) and blocked with 4% bovine serum albumin. Cell index (electrical impedance) was measured to assess cell attachment/spreading every 3 minutes for 24 hours at 37° C./5% CO2 using the xCELLigence RTCA MP Instrument (Acea Biosciences; San Diego, Calif.). […] In the assay, the IPF-derived human lung fibroblasts were separately incubated with: the αvβ1-selective small molecule inhibitor; the selective antibody αvβ6 inhibitor, 3G9; and compound 5.

[4] = system: normal bronchial epithelial cell adhesion to LAP; test: normal bronchial epithelial cell adhesion to LAP (FIG. 3A); type: cell-based
Mice (C57BL/6) = test: Murine bleomycin model (Example B7); type: in vivo
Procedure: Mice (C57BL/6) were divided into healthy (n=15), vehicle-treated (n=15), and test article-treated (n=15 per dose) groups. Mice in the vehicle and test article-treated groups were administered 3 U/kg of bleomycin (Teva Pharmaceuticals; North Wales, Pa.) via oropharyngeal aspiration while under anesthesia on day 0. Healthy animals were administered water in a similar fashion. Starting on day 7, mice in the control group were administered PBS vehicle, 130 μL, by oral gavage, BID for 14 days. Also starting on day 7, mice in the test group were administered compound 5 in PBS by oral gavage, BID for 14 days, at relative dosages of 1×, 2.5× and 5×. […] From day 14 through day 21, 9 of the 15 mice were administered ^2H2O for labeling. All mice were sacrificed on day 21 and tissues were collected. Samples were prepared for analysis either directly from lung tissue, or by bronchoalveolar lavage, which washes out the bronchiolar and alveolar space with saline to produce a bronchoalveolar lavage fluid (BALF) in which 80-90% of cells are alveolar macrophages.
FIG. 4C is a graph showing that compared to the healthy mice, lung tissue in the vehicle-treated mice experienced a substantial increase in SMAD3 phosphorylation, which is a measure of TGF-β signaling-related kinase activity. […] FIG. 4D is a graph showing that compared to the healthy mice, lung tissue in the vehicle-treated mice experienced a substantial accumulation of new collagen as evidenced by the percentage of lung collagen containing ^2H-labeled hydroxyproline.
FIGS. 4F, 4G, and 4H show high resolution second harmonic generation images of fibrillar collagen (collagen type I and III) taken from formalin-fixed paraffin embedded lung tissue sections from a healthy mouse lung (4F), a vehicle-treated mouse lung (4G) and a test-article treated mouse lung (4H; 500 mg/kg BID). Color scale is indicative of collagen fiber density (red=most dense; blue=least dense).
FIG. 4I is a graph showing the percent total collagen area in the second harmonic generation mouse lung images. Large structural areas of collagen found similarly in healthy and fibrotic tissues (dense collagen fibers surrounding airways were excluded from this analysis to focus on interstitial fibrotic collagen). […] The 1×, 2.5×, and 5× dosages were at the same absolute values in mg/kg as in Example B7.
The data for FIGS. 4J and 4K, was obtained 14 days after bleomycin challenge in mice were treated with compound 5 at 2.5× dose (PO, BID for 1.5 days).

`COCCN(CCCCc1ccc2c(n1)NCCC2)CC[C@H](Nc1ncnc2ccccc12)C(=O)O` [Compound 5, (S)-4-((2-methoxyethyl) (4-(5,6,7,8-tetrahydro-1,8-naphthyridin-2-yl)butyl)amino)-2-(quinazolin-4-ylamino) butanoic acid] was tested, and the “lung slice Col1a1 expression” value (lung Col1a1 expression) was “substantial, statistically significant (p<0.01 vs vehicle) decrease”, the “COL1A1 expression, dose dependence” value (COL1A1 expression [1]; PCLS from a single IPF lung sample, seven days, 200 pM to 1 μM, FIG. 6E) was “dose dependent reduction” and the “reduction in COL1A1 expression” value (COL1A1 expression [1]; PCLS from a single IPF lung sample, seven days, at ≥2 nM, FIG. 6E) was no less than 47 % reduction. For the same compound, the “lung Col1a1 expression” value (COL1A1 expression [1]; human IPF slices, 3 days, 3G9 ≥400 ng/mL, compound 5 179 nM, ALK5 inhibitor 1 μM, FIG. 6C) was “substantial, statistically significant (p<0.01 vs vehicle) decrease”, the COL1A1 expression (COL1A1 expression [2]) was “dose dependent reduction” and the “cell adhesion in the IPF-derived lung fibroblasts” value [3] was “substantially inhibited”. The “normal bronchial epithelial cell adhesion to LAP” value [4] was “substantially inhibited”, the “pSMAD3 levels in lung and BALF cells vs. plasma drug exposure” value (Mice (C57BL/6); 14 days after bleomycin, […] dose PO BID for 1.5 days, FIGS. 4J, 4K) was “close inverse relationship” and the “percent total collagen area in second harmonic generation lung images” value (Mice (C57BL/6); bleomycin mice, 1× (p<0.05), […] (p<0.01), 5× (p<0.0001 vs vehicle), FIG. 4I) was “substantial, statistically significant dose-dependent reduction”. The “accumulated new collagen (percentage of lung collagen containing 2H-labeled hydroxyproline)” value (Mice (C57BL/6); bleomycin mice, 1× and 5× (p<0.01 vs vehicle), FIG. 4D) was “dose-dependent reduction”, the “total pulmonary collagen, as measured by μg of hydroxyproline” value (Mice (C57BL/6); bleomycin mice, 1×, […], 5× (p<0.05 vs vehicle), FIG. 4E) was “reduction in total pulmonary collagen” and the “SMAD3 phosphorylation in lung tissue” value (Mice (C57BL/6); bleomycin mice, oral gavage BID 14 days at 1×, […], 5×, vs vehicle, FIG. 4C) was “substantial, statistically significant dose-dependent reductions”. The “pSMAD3 levels in the lung” value (Mice (C57BL/6); bleomycin mice, time- and dose-dependent inhibition) was “approximately 50 % of the untreated levels”.
